Patent publication US5710124A, “Method for combatting bovine mastitis” (Novartis Corporation, priority 1993, dated 1998)
Ends that are not written are not given here.

How the values were obtained:
[1] = tested on: Staphylococcus aureus Newbold 305; assay: Effect on S. aureus in milk (cfu, percent survival); assay type: cell-based; conditions: for % survival: 37° C. 30 min
Procedure: Effect of Gallidermin on […] in milk Staphylococcus aureus Newbold 305 was grown in M17 broth (Merck) at 37° C. to an optical density at 600 nm of 1.0. Cells were collected by centrifugation and washed in 20 mM Tris-HCl pH 8.0. The bacterial pellet was resuspended in milk at a density of about 10^7 cells/ml. 1 ml aliquots of this suspension were incubated in eppendorf tubes with various amounts of Nisin, Lacticin 481 and Gallidermin. Incubations were at 37° C. for 30 min. A control with no antimicrobial added was run in parallel. After incubation the samples were centrifuged to obtain the cellular pellet, which was washed 2 times with 1 ml of 20 mM Tris-HCl pH 8.0 and resuspended in 1 ml of this buffer. […] of the appropriate dilutions were plated on M17 agar plates containing 0.5% glucose and incubated overnight at 37° C. Colony forming units (cfu) were determined and percent survival was calculated relative to the control.

[2] = tested on: S. aureus Newbold 305; assay: MIC plate assay; assay type: cell-based, Staphylococcus aureus
Procedure: (§1) The MICs (Minimal Inhibitory Concentrations) of Gallidermin against […] and Streptococcus diacetylactis were determined. S. aureus Newbold 305 is a causative agent of Mastitis, S. diacetylactis is used in the manufacture of yoghurt and cheese.
(§2) Appropriate dilutions Gallidermin (300, 100, 30, 10, 3, 1, 0.3, 0.1 µg/ml) were prepared in milk and in M17 broth (Merck) and allowed to stand at room temperature for 30 min.
(§3) Then, […] aliquots of the solutions were spotted on M17 agar plates containing 0.5% of glucose. These plates had been overlaid with softagar (0.5% agarose) seeded with 1% of an A600=1 culture of either S. aureus or S. diacetylactis. The spots were allowed to dry, then the plates were incubated at 30° C. overnight.
(§4) The MICs were determined as the lowest concentration of antimicrobial protein causing the formation of a clear halo in the bacterial lawn.

[3] = tested on: Streptococcus diacetylactis; assay: MIC plate assay; assay type: cell-based; conditions: for MIC: S. diacetylactis
Procedure: as §1, §2, §3, §4

[4] = tested on: Staphylococcus aureus; assay: Subclinical bovine mastitis infection model, intramammary treatment; assay type: in vivo, cows
Description: Preliminary experiments for evaluating the potential of Gallidermin, Epidermin or of their pharmaceutically acceptable acid addition salts in subclinical bovine mastitis
Non-infected cows are selected based on non recovery of Staphylococcus aureus from two milk samples taken one day apart from all quarters. Then, 3 quarters are inoculated via the intramammary route using a suspension of Staphylococcus aureus. The 4th quarter serves as control. During the two to four weeks after inoculation, milk samples are taken from all quarters at least 3 times to see whether Staphylococcus aureus can be recovered, and therefore whether the quarter has become infected. A quarter is defined as infected, if Staphylococcus aureus is recovered from at least two of these milk samples. Treatments are assigned randomly to infected quarters and injected via the intramammary route. Milk samples are taken daily until a minimum of 14 days after the last treatment. A quarter is considered as cured if milk samples from that quarter become negative (i.e., no Staphylococcus aureus is recovered) within 7 days after the last treatment and stay negative throughout the 14 day sampling period.
This experimental model is used to have a fixed framework on which to evaluate treatments. To work with Staphylococcus aureus has the advantage that it is the most difficult Gram positive bacterium to treat and one of the most important bacteria causing bovine mastitis. Therefore, cure rates should be expected to be lower than for other Gram positive bacteria, such as Streptococci and coagulase-negative Staphylococci.
In addition, the infection is mild as it should be for subclinical mastitis.
To optimize work load in relation to man power, 8 to 16 cows are enrolled in each trial. Trials normally last 5 weeks.

Q: Which results are given for Nisin?
A: activity against Staphylococcus aureus in the presence of milk [1]: strongly inhibited; % survival ([1]; 3 µg/ml): 65%; % survival ([1]; 10 µg/ml): 15%; % survival ([1]; 30 µg/ml): 1.8%; % survival ([1]; 100 µg/ml): 0.2%

Q: What does the source list for Lacticin 481?
A: activity against Staphylococcus aureus in the presence of milk [1]: strongly inhibited; % survival ([1]; 1 µg/ml): 74%; % survival ([1]; 3 µg/ml): 51%; % survival ([1]; 10 µg/ml): 36%; % survival ([1]; 30 µg/ml): 30%; % survival ([1]; 100 µg/ml): 12%

Q: What does the source list for “Gallidermin (IASKFLCTPGCAKTGSFNSYCC; not fully specified; ends and bridges not checked; also: lantibiotic; UniProt P21838 31-52, looked up) [natural product produced by the microorganism Staphylococcus gallinarum; lanthionine containing peptide]”?
A: MIC ([2]; dilutions in M17 broth): 1 mug/ml; MIC ([2]; dilutions in milk): 0.3 mug/ml; MIC ([3]; dilutions in M17 broth): 0.3 mug/ml; MIC ([3]; dilutions in milk): 1 mug/ml; activity against Streptococcus diacetylactis in milk versus broth ([3]; milk and M17 broth): comparable activities; activity against Staphylococcus aureus in the presence of milk [1]: retains a high specific activity; % survival ([1]; 0.3 µg/ml): 29%; % survival ([1]; 1 µg/ml): 12%; % survival ([1]; 3 µg/ml): 1%; % survival ([1]; 10 µg/ml): 0.01%; % of treated group positive ([4]; 3 × 1 mg, 27 qutrs, day 0 (before treatment)): 93%; % of treated group positive ([4]; 3 × 1 mg, 27 qutrs, day 1): 37%; % of treated group positive ([4]; 3 × 1 mg, 27 qutrs, day 2): 11%; % of treated group positive ([4]; 3 × 1 mg, 27 qutrs, day 3): 26%; % of treated group positive ([4]; 3 × 1 mg, 27 qutrs, day 4): 56%; % of treated group positive ([4]; 3 × 1 mg, 27 qutrs, day 5): 59%; % of treated group positive ([4]; 3 × 1 mg, 27 qutrs, day 7): 56%; % of treated group positive ([4]; 3 × 1 mg, 27 qutrs, day 8): 56%; % of treated group positive ([4]; 3 × 1 mg, 27 qutrs, day 9): 52%; % of treated group positive ([4]; 3 × 1 mg, 27 qutrs, day 10): 56%; % of treated group positive ([4]; 3 × 1 mg, 27 qutrs, day 11): 56%; % of treated group positive ([4]; 3 × 1 mg, 27 qutrs, day 12): 52%; % of treated group positive ([4]; 3 × 1 mg, 27 qutrs, day 14): 48%; % of treated group positive ([4]; 3 × 1 mg, 27 qutrs, day 15): 52%; % of treated group positive ([4]; 14 × 0.1 mg, 24 qutrs, day 0 (before treatment)): 96%; % of treated group positive ([4]; 14 × 0.1 mg, 24 qutrs, day 1): 88%; % of treated group positive ([4]; 14 × 0.1 mg, 24 qutrs, day 2): 88%; % of treated group positive ([4]; 14 × 0.1 mg, 24 qutrs, day 3): 71%; % of treated group positive ([4]; 14 × 0.1 mg, 24 qutrs, day 4): 58%; % of treated group positive ([4]; 14 × 0.1 mg, 24 qutrs, day 5): 67%; % of treated group positive ([4]; 14 × 0.1 mg, 24 qutrs, day 7): 50%; % of treated group positive ([4]; 14 × 0.1 mg, 24 qutrs, day 8): 67%; % of treated group positive ([4]; 14 × 0.1 mg, 24 qutrs, day 9): 71%; % of treated group positive ([4]; 14 × 0.1 mg, 24 qutrs, day 10): 88%; % of treated group positive ([4]; 14 × 0.1 mg, 24 qutrs, day 11): 83%; % of treated group positive ([4]; 14 × 0.1 mg, 24 qutrs, day 12): 88%; % of treated group positive ([4]; 14 × 0.1 mg, 24 qutrs, day 14): 79%; % of treated group positive ([4]; 14 × 0.1 mg, 24 qutrs, day 15): 88%; % of treated group positive ([4]; 14 × 0.1 mg, 24 qutrs, day 16): 83%; % of treated group positive ([4]; 14 × 0.1 mg, 24 qutrs, day 17): 83%; % of treated group positive ([4]; 14 × 0.1 mg, 24 qutrs, day 19): 79%; % of treated group positive ([4]; 14 × 0.1 mg, 24 qutrs, day 21): 83%
